Measurements from PMC4195671, “Luteolin Suppresses Cancer Cell Proliferation by Targeting Vaccinia-Related Kinase 1” (PLoS ONE, 2014).
Like-named read-outs stand apart in the source and are kept apart here.

What was measured:
[1] = target: T1, Vaccinia-related kinase 1 (VRK1) (Homo sapiens, UniProt Q99986); assay: biochemical; assay type: binding
[2] = target: T1, Vaccinia-related kinase 1 (VRK1); assay: biochemical; assay type: binding; remark: listed apart in the source

T1 sequence (Q99986 whole entry): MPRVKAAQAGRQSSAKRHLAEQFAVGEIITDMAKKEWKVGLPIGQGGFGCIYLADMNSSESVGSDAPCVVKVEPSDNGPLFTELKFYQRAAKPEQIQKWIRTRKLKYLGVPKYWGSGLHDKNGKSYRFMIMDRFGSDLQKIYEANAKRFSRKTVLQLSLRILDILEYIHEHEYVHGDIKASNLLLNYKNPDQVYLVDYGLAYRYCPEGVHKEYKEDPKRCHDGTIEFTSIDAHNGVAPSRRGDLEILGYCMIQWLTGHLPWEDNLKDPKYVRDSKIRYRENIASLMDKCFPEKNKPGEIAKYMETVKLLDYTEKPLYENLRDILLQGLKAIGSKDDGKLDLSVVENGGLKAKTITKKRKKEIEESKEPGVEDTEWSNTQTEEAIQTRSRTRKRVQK

SMILES	Kd [1]	Kd [2]
COc1ccc(-c2cc(=O)c3c(O)c(OC)c(O)cc3o2)cc1OC [eupatilin]	184 µM	–
O=c1cc(-c2ccc(O)c(O)c2)oc2cc(O)cc(O)c12 [luteolin, 3′,4′,5,7-tetrahydroxyflavone]	–	5.8 µM
COc1c(O)cc(O)c2c(=O)cc(-c3ccccc3)oc12 [wogonin]	120 µM	–
